# Results taken from US11793845B2, “Composition for ameliorating peripheral sensory neuropathy” (KINKI UNIVERSITY, priority 2016, dated 2023).
# How the values were obtained:
# Format in all cases: in vivo
# Settings in all cases: duloxetine 30 mg/kg daily
# [1] = tested on: Peripheral Sensory Neuropathy Induced by Bortezomib in Mice; test: von Frey test, bortezomib-induced peripheral sensory neuropathy
# From the text: (§1) The mice in the three groups in the above (1) were put in a cage and a filament having a strength of 0.16 g was pressed on the plantar surface of the leg to measure the number of times (a score) of avoidance response.
# In the present test, the mice were divided into three groups by a difference in test objects. As in Example 1, male Balb/c mice of 6 to 7 weeks old were used. The mice were divided into a total of three groups, a control group, a bortezomib administration group, and a bortezomib and Lentinus edodes mycelium extract administration group (bortezomib+Lentinus edodes mycelium extract administration group).
# Bortezomib was administered to each mouse once a day at a dose of 1 mg/kg. Further, the Lentinus edodes mycelium extract was administered to each mouse once a day at a dose of 2 g/kg.
# Further, the number of times of administration was set to once a week (on Day 0, Day 7, and Day 14) for bortezomib and daily (from Day 0 to Day 15) for the Lentinus edodes mycelium extract in both the von Frey test and the cold plate test below.
# Evaluation was performed in the same manner as in the test with oxaliplatin in Example 1. Referring to FIG. 7, the horizontal axis indicates an elapsed time after administration (days) and the vertical axis indicates the avoidance response (scores). Open circles with a solid line represent the control group. Filled circles with a solid line represent the group in which only bortezomib was administered. Open squares with a dash line represent the group in which bortezomib and the Lentinus edodes mycelium extract were administered at the same time (bortezomib+Lentinus edodes mycelium extract administration group). When the difference with the control group was determined to be significant using a significance level of 5%, the data were marked by “*”.
# (§2) In the present test, the mice were divided into six groups by a difference in test objects. As in Example 1, male Balb/c mice of 6 to 7 weeks old were used. […]
# [2] = tested on: Peripheral Sensory Neuropathy Induced by Vincristine in Mice; test: von Frey test, vincristine-induced peripheral sensory neuropathy
# From the text: as §1
# In the present test, the mice were divided into three groups by a difference in test objects. As in Example 1, male Balb/c mice of 6 to 7 weeks old were used. The mice were divided into a total of three groups, a control group, a vincristine administration group, and a vincristine and Lentinus edodes mycelium extract administration group (vincristine+Lentinus edodes mycelium extract administration group).
# Vincristine was administered to each mouse once a day at a dose of 0.2 mg/kg. Further, the Lentinus edodes mycelium extract was administered to each mouse once a day at a dose of 2 g/kg.
# Further, the number of times of administration was set to once a week (on Day 0, Day 7, and Day 14) for vincristine and daily (from Day 0 to Day 15) for the Lentinus edodes mycelium extract in both the von Frey test and the cold plate test below.
# Evaluation was performed in the same manner as in the test with oxaliplatin in Example 1. Referring to FIG. 5, the horizontal axis indicates an elapsed time after administration (days) and the vertical axis indicates the avoidance response (scores). Open circles with a solid line represent the control group. Filled circles with a solid line represent the group in which only vincristine was administered. Open squares with a dash line represent the group in which vincristine and the Lentinus edodes mycelium extract were administered at the same time (vincristine+Lentinus edodes mycelium extract administration group). When the difference with the control group was determined to be significant using a significance level of 5%, the data were marked by “*”.
# as §2
# [3] = tested on: Peripheral Sensory Neuropathy Induced by Oxaliplatin in Mice; test: cold plate test, oxaliplatin-induced peripheral sensory neuropathy
# Protocol: Male Balb/c mice of 6 to 7 weeks old were used. The mice were divided into three groups: a control group, an oxaliplatin administration group, and an oxaliplatin and Lentinus edodes mycelium extract administration group (oxaliplatin+Lentinus edodes mycelium extract administration group). Oxaliplatin was administered to each mouse once a day at a dose of 6 mg/kg. Further, the Lentinus edodes mycelium extract was administered to each mouse once a day at a dose of 2 g/kg.
# Further, the number of times of administration was set to once a week (on Day 0, Day 7, and Day 14) for oxaliplatin and daily (from Day 0 to Day 15) for the Lentinus edodes mycelium extract in both the von Frey test and the cold plate test below.
# The effect of the Lentinus edodes mycelium extract on the paresthesia to cold stimulation was tested by performing the cold plate test. The mice in the three groups in the above (1) were put on a cold plate set to 10° C. and a response time for avoidance (a latency) was measured. The shorter latency means that the mouse avoids the cold stimulation of the cold plate more.
# Oxaliplatin was administered to each mouse once a day at a dose of 6 mg/kg. Further, the Lentinus edodes mycelium extract was administered to each mouse once a day at a dose of 2 g/kg three days or six days after the administration of oxaliplatin. These groups are referred to as “Lentinus edodes mycelium extract 3-day delayed administration group” and “Lentinus edodes mycelium extract 6-day delayed administration group”, respectively.
# Further, groups in which duloxetine was administered after the administration of oxaliplatin were prepared for comparison.
structure (smiles),measurement,setting,value
CNCC[C@H](Oc1cccc2ccccc12)c1cccs1 [duloxetine],"avoidance score compared with bortezomib administration group, von Frey test",[1]; 3-day delayed after bortezomib,almost the same score as that in the bortezomib administration group
same,"avoidance score, von Frey test",[1]; 6-day delayed after bortezomib,same tendency as that in the duloxetine 3-day delayed administration group
same,"avoidance score compared with vincristine administration group, von Frey test",[2]; 3-day delayed after vincristine,almost the same score as that in the vincristine administration group
same,"avoidance score, von Frey test",[2]; 6-day delayed after vincristine,same tendency as that in the duloxetine 3-day delayed administration group
same,"latency compared with oxaliplatin administration group, cold plate test",[3]; 3-day delayed after oxaliplatin,almost the same as that in the oxaliplatin administration group
same,"latency, cold plate test",[3]; 6-day delayed after oxaliplatin,same tendency as that in the duloxetine 3-day delayed administration group
